Source: patent publication US12138277B2, “Oligosaccharides for use in the treatment of Parkinson's disease” (UNIVERSITA' DEGLI STUDI DI MILANO, priority 2018, dated 2024)

Assays:
[1] = system: Neuroblastoma cells; assay: Excitotoxicity protection: DCB-induced death of neuroblastoma cells; assay type: cell-based
Procedure: In Parkinson's disease, and more generally in the degenerative diseases of the central nervous system, there is a strong activation of the immune system, oxidative stress and excitotoxicity. Neuroblastoma cells were then treated with DCB (3′,4′-Dichlorobenzamyl hydrochloride) to induce an accumulation of intracellular calcium, an experimental strategy which mimics glutamate-induced excitotoxicity.

[2] = system: Neuroblastoma cells of murine origin; assay: Proteomic analysis by mass spectroscopy of treated neuroblastoma cells; assay type: cell-based; details: after 24 h of treatment
Procedure: Neuroblastoma cells of murine origin were treated with β-Gal-(1-3)-β-GalNAc-(1-4)-[α-Neu5Ac-(2-3)]-β-Gal-(1-4)-Glc to induce neuronal differentiation (Chiricozzi et al. 2017 Journal of Neurochemistry 143:645-659). After 24 h of treatment, the cells were collected for protein analysis. […] These proteins are involved in cellular signaling of i) excitotoxicity neuroprotection; ii) inhibition of oxidative stress; iii) inhibition of microglia hyperactivation and downregulation of proinflammatory molecules.

[3] = Crossing of the blood-brain barrier: radioactivity in brain areas after administration of tritiated oligosaccharide; assay type: in vivo, Wild-type mice (C57BL/6); details: intraperitoneal, subcutaneous or intravenous administration; 10 μg tritiated oligosaccharide; 1 hour and 22 hours after administration
Procedure: Wild-type mice (C57BL/6) of about 3 months were treated with β-[6-^3H]Gal-(1-3)-β-GalNAc-(1-4)-[α-Neu5Ac-(2-3)]-β-Gal-(1-4)-Glc.
Administration was performed intraperitoneally, subcutaneously or intravenously (Orlando P. et al 1979, Pharmacological Research Communications 11:759-773). For the intravenous route, the injection was performed in the central vein of the tail. The treatment was carried out with 10 μg of tritiated oligosaccharide (10 μCi) dissolved in 0.1 ml of saline. For each experimental group 5 animals were used. 1 hour and 22 hours after administration, the animals were sacrificed by cardiac perfusion (10 min), in order to remove the blood, especially in the central nervous system. The brain was removed and the different areas (cortex, hippocampus, substantia nigra, cerebellum, trunk) were identified and separated. Tissue samples were lyophilized, homogenized and the relative associated radioactivity was detected at the β-counter (Orlando et al 1979, Pharmacological Research Communication 11:759-773).

Compound | toxicity of the oligosaccharide to cells ([1]; neuroblastoma cells) | protection of cells from DCB-induced death ([1]; neuroblastoma cells treated with DCB (3′,4′-Dichlorobenzamyl hydrochloride)) | number of proteins whose expression is induced [2] | oligosaccharide reaching the central nervous system / crossing the blood-brain barrier (associated radioactivity in brain areas) [3]
CC(=O)N[C@H]1[C@H](O[C@@H]2[C@H](O[C@]3(C(=O)O)C[C@H](O)[C@@H](NC(C)=O)[C@H]([C@H](O)[C@H](O)CO)O3)[C@@H](O)[C@H](O[C@H]3[C@H](O)[C@@H](O)C(O)O[C@@H]3CO)O[C@@H]2CO)O[C@H](CO)[C@H](O)[C@@H]1O[C@@H]1O[C@H](CO)[C@H](O)[C@H](O)[C@H]1O (stereo partly drawn) [β-Gal-(1-3)-β-GalNAc-(1-4)-[α-Neu5Ac-(2-3)]-β-Gal-(1-4)-Glc] | without being toxic to cells | able to protect cells from DCB-induced death | 320 | 
β-[6-^3H]Gal-(1-3)-β-GalNAc-(1-4)-[α-Neu5Ac-(2-3)]-β-Gal-(1-4)-Glc |  |  |  | a fair amount of the oligosaccharide is able to reach the central nervous system, including the substantia nigra, within a few hours
